For orientation: EC50 means the concentration giving half of the maximal effect.

This experiment relates to JeKo-1. Kind of experiment: Antiproliferative activity against human JeKo-1 cells assessed as reduction in cell viability by Cell-Titer Glo luminescent assay. Type of experiment: functional, cell-based.
For `CC[C@@]1(O)C(=O)OCc2c1cc1n(c2=O)Cc2c-1nc1cc(F)c(C)c3c1c2[C@@H](NC(=O)C(C)(O)CO)CC3` (stereo partly specified), the EC50 stood at 1.2 nM.

Regarding `CC[C@@]1(O)C(=O)OCc2c1cc1n(c2=O)Cc2c-1nc1cc(F)c(C)c3c1c2[C@@H](NC(=O)C(F)(F)C(C)O)CC3` (stereo partly specified), the EC50 was 1.6 nM.

Turning to `CC[C@@]1(O)C(=O)OCc2c1cc1n(c2=O)Cc2c-1nc1cc(F)c(C)c3c1c2[C@@H](NC(=O)C(C)(N)C(F)(F)F)CC3` (stereo partly specified), the EC50 stood at 1.6 nM.

In the case of `CC[C@@]1(O)C(=O)OCc2c1cc1n(c2=O)Cc2c-1nc1cc(F)c(C)c3c1c2[C@@H](NC(=O)C(F)CO)CC3` (stereo partly specified), the EC50 amounted to 1.5 nM.

On to `CC[C@@]1(O)C(=O)OCc2c1cc1n(c2=O)Cc2c-1nc1cc(F)c(C)c3c1c2[C@@H](NC(=O)[C@@H](O)CO)CC3`, for which the EC50 is 1.4 nM.

For the compound `CC[C@@]1(O)C(=O)OCc2c1cc1n(c2=O)Cc2c-1nc1cc(F)c(C)c3c1c2[C@@H](NC(=O)[C@H](O)CCO)CC3`, the EC50 was found to be 1.4 nM.

The record behind these values is ChEMBL document CHEMBL5634199, “Novel Exatecan-Derived Topoisomerase-1 Inhibitors for Treating Cancer” (ACS Med Chem Lett, 2024).
